From ChEMBL document CHEMBL3885861, “Open TG-GATES”

Organism: Rattus norvegicus
Assay: Open TG-GATES - Regimen: Single
Type: toxicity, organism-based, Sprague-Dawley
Design: regimen Single, gender Male, age 6 weeks
Conditions: in vivo, po, route gavage; for APTT / Bas / Eos / Fbg / Hb / Ht / Lym / MCH / MCHC / MCV / Mono / Neu / PT / Plat / RBC / Ret / WBC: tissue Blood; for KIDNEY_L / KIDNEY_R / KIDNEY_TOTAL: tissue Kidney; for LIVER: tissue Liver; for A/G / ALP / ALT / AST / BUN / CRE / Ca / Cl / DBIL / GLC / IP / K / LDH / Na / PL / RALB / TBIL / TC / TG / TP / gamma-GTP: tissue Plasma
[1] = 300 mg/kg, 3 h, dose level Middle
[2] = 300 mg/kg, 6 h, dose level Middle
[3] = 300 mg/kg, 9 h, dose level Middle
[4] = 300 mg/kg, 24 h, dose level Middle
[5] = 1000 mg/kg, 3 h, dose level High
[6] = 1000 mg/kg, 6 h, dose level High
[7] = 1000 mg/kg, 9 h, dose level High
[8] = 1000 mg/kg, 24 h, dose level High

COC1=CC(=O)C[C@@H](C)[C@]12Oc1c(Cl)c(OC)cc(OC)c1C2=O [GRISEOFULVIN]
TERMINAL_BW [1]: 212.4 g
APTT [1]: 18.3 s
Bas [1]: 0%
Eos [1]: 1.2%
Fbg [1]: 229.2 mg/dL
Hb [1]: 12.7 g/dL
Ht [1]: 37.4%
Lym [1]: 71.6%
MCH [1]: 21.5 pg
MCHC [1]: 34.1%
MCV [1]: 63.1 fL
Mono [1]: 3.4%
Neu [1]: 23.2%
PT [1]: 12.9 s
Plat [1]: 130.7 x10_4/uL
RBC [1]: 592 x10_4/ul
Ret [1]: 7.8%
WBC [1]: 110.1 x10_2/uL
KIDNEY_L [1]: 0.9 g
KIDNEY_R [1]: 0.9 g
KIDNEY_TOTAL [1]: 1.9 g
LIVER [1]: 9.7 g
A/G [1]: 1.6
ALP [1]: 1144 IU/L
ALT [1]: 40.8 IU/L
AST [1]: 69.2 IU/L
BUN [1]: 11.2 mg/dL
CRE [1]: 0.3 mg/dL
Ca [1]: 11 mg/dL
Cl [1]: 104.2 meq/L
DBIL [1]: 0.2 mg/dL
GLC [1]: 190.4 mg/dL
IP [1]: 8.7 mg/dL
K [1]: 4 meq/L
LDH [1]: 113.8 IU/L
Na [1]: 140.8 meq/L
PL [1]: 175.8 mg/dL
RALB [1]: 3.3 g/dL
TBIL [1]: 0.2 mg/dL
TC [1]: 84.8 mg/dL
TG [1]: 134.8 mg/dL
TP [1]: 5.3 g/dL
gamma-GTP [1]: 1.2 IU/L
TERMINAL_BW [2]: 212.5 g
APTT [2]: 17.7 s
Bas [2]: 0%
Eos [2]: 1%
Fbg [2]: 220.2 mg/dL
Hb [2]: 12.8 g/dL
Ht [2]: 38.1%
Lym [2]: 72.6%
MCH [2]: 21.8 pg
MCHC [2]: 33.6%
MCV [2]: 64.7 fL
Mono [2]: 3.6%
Neu [2]: 22.4%
PT [2]: 13.1 s
Plat [2]: 129.2 x10_4/uL
RBC [2]: 588.6 x10_4/ul
Ret [2]: 7.9%
WBC [2]: 82.9 x10_2/uL
KIDNEY_L [2]: 1 g
KIDNEY_R [2]: 1 g
KIDNEY_TOTAL [2]: 2 g
LIVER [2]: 9.5 g
A/G [2]: 1.8
ALP [2]: 1072.4 IU/L
ALT [2]: 37.2 IU/L
AST [2]: 68.4 IU/L
BUN [2]: 10.2 mg/dL
CRE [2]: 0.4 mg/dL
Ca [2]: 10.8 mg/dL
Cl [2]: 103.2 meq/L
DBIL [2]: 0.096 mg/dL
GLC [2]: 205.6 mg/dL
IP [2]: 9.7 mg/dL
K [2]: 4 meq/L
LDH [2]: 139.2 IU/L
Na [2]: 141.4 meq/L
PL [2]: 150.6 mg/dL
RALB [2]: 3.4 g/dL
TBIL [2]: 0.2 mg/dL
TC [2]: 79 mg/dL
TG [2]: 50.4 mg/dL
TP [2]: 5.4 g/dL
gamma-GTP [2]: 1.4 IU/L
TERMINAL_BW [3]: 210.4 g
APTT [3]: 17.3 s
Bas [3]: 0%
Eos [3]: 0.8%
Fbg [3]: 214 mg/dL
Hb [3]: 12.9 g/dL
Ht [3]: 38.2%
Lym [3]: 79.4%
MCH [3]: 21.4 pg
MCHC [3]: 33.9%
MCV [3]: 63.1 fL
Mono [3]: 2.6%
Neu [3]: 17%
PT [3]: 13.6 s
Plat [3]: 115.4 x10_4/uL
RBC [3]: 605 x10_4/ul
Ret [3]: 8.2%
WBC [3]: 82.6 x10_2/uL
KIDNEY_L [3]: 1 g
KIDNEY_R [3]: 1 g
KIDNEY_TOTAL [3]: 2 g
LIVER [3]: 8.7 g
A/G [3]: 1.6
ALP [3]: 1051.6 IU/L
ALT [3]: 30.8 IU/L
AST [3]: 63 IU/L
BUN [3]: 11.4 mg/dL
CRE [3]: 0.3 mg/dL
Ca [3]: 10.6 mg/dL
Cl [3]: 103.8 meq/L
DBIL [3]: 0.07 mg/dL
GLC [3]: 200.2 mg/dL
IP [3]: 10.3 mg/dL
K [3]: 3.8 meq/L
LDH [3]: 132.4 IU/L
Na [3]: 141.6 meq/L
PL [3]: 140.6 mg/dL
RALB [3]: 3.3 g/dL
TBIL [3]: 0.1 mg/dL
TC [3]: 75 mg/dL
TG [3]: 43 mg/dL
TP [3]: 5.4 g/dL
gamma-GTP [3]: 1.2 IU/L
TERMINAL_BW [4]: 223.4 g
APTT [4]: 18.9 s
Bas [4]: 0%
Eos [4]: 0.8%
Fbg [4]: 204.6 mg/dL
Hb [4]: 13.3 g/dL
Ht [4]: 40%
Lym [4]: 76.2%
MCH [4]: 21.5 pg
MCHC [4]: 33.3%
MCV [4]: 64.5 fL
Mono [4]: 2.4%
Neu [4]: 19.8%
PT [4]: 12.7 s
Plat [4]: 125.2 x10_4/uL
RBC [4]: 621 x10_4/ul
Ret [4]: 7.3%
WBC [4]: 85.6 x10_2/uL
KIDNEY_L [4]: 1 g
KIDNEY_R [4]: 1 g
KIDNEY_TOTAL [4]: 1.9 g
LIVER [4]: 10.9 g
A/G [4]: 1.8
ALP [4]: 958.6 IU/L
ALT [4]: 42.8 IU/L
AST [4]: 64.8 IU/L
BUN [4]: 14.6 mg/dL
CRE [4]: 0.4 mg/dL
Ca [4]: 10.9 mg/dL
Cl [4]: 103.8 meq/L
DBIL [4]: 0.1 mg/dL
GLC [4]: 208 mg/dL
IP [4]: 8.1 mg/dL
K [4]: 4.2 meq/L
LDH [4]: 119.8 IU/L
Na [4]: 141.4 meq/L
PL [4]: 144.6 mg/dL
RALB [4]: 3.4 g/dL
TBIL [4]: 0.2 mg/dL
TC [4]: 76.8 mg/dL
TG [4]: 102 mg/dL
TP [4]: 5.4 g/dL
gamma-GTP [4]: 1.4 IU/L
TERMINAL_BW [5]: 213.3 g
APTT [5]: 19.4 s
Bas [5]: 0%
Eos [5]: 1%
Fbg [5]: 212.2 mg/dL
Hb [5]: 12.2 g/dL
Ht [5]: 35.6%
Lym [5]: 78.4%
MCH [5]: 21.9 pg
MCHC [5]: 34.3%
MCV [5]: 63.7 fL
Mono [5]: 3%
Neu [5]: 17%
PT [5]: 13.2 s
Plat [5]: 124.4 x10_4/uL
RBC [5]: 557.4 x10_4/ul
Ret [5]: 8.3%
WBC [5]: 88.7 x10_2/uL
KIDNEY_L [5]: 0.9 g
KIDNEY_R [5]: 0.9 g
KIDNEY_TOTAL [5]: 1.9 g
LIVER [5]: 9.6 g
A/G [5]: 1.9
ALP [5]: 900 IU/L
ALT [5]: 36 IU/L
AST [5]: 66.6 IU/L
BUN [5]: 10.6 mg/dL
CRE [5]: 0.3 mg/dL
Ca [5]: 11 mg/dL
Cl [5]: 103.6 meq/L
DBIL [5]: 0.2 mg/dL
GLC [5]: 184.2 mg/dL
IP [5]: 8.2 mg/dL
K [5]: 4 meq/L
LDH [5]: 128.4 IU/L
Na [5]: 140.4 meq/L
PL [5]: 179.2 mg/dL
RALB [5]: 3.4 g/dL
TBIL [5]: 0.3 mg/dL
TC [5]: 86 mg/dL
TG [5]: 122.6 mg/dL
TP [5]: 5.2 g/dL
gamma-GTP [5]: 1.6 IU/L
TERMINAL_BW [6]: 211 g
APTT [6]: 18.5 s
Bas [6]: 0%
Eos [6]: 1%
Fbg [6]: 211.2 mg/dL
Hb [6]: 12.7 g/dL
Ht [6]: 37.4%
Lym [6]: 75.6%
MCH [6]: 21.9 pg
MCHC [6]: 34%
MCV [6]: 64.3 fL
Mono [6]: 4%
Neu [6]: 19%
PT [6]: 13.3 s
Plat [6]: 123.4 x10_4/uL
RBC [6]: 582 x10_4/ul
Ret [6]: 7.7%
WBC [6]: 90 x10_2/uL
KIDNEY_L [6]: 1 g
KIDNEY_R [6]: 1 g
KIDNEY_TOTAL [6]: 2 g
LIVER [6]: 9.2 g
A/G [6]: 1.7
ALP [6]: 994.4 IU/L
ALT [6]: 34 IU/L
AST [6]: 66.8 IU/L
BUN [6]: 10.4 mg/dL
CRE [6]: 0.3 mg/dL
Ca [6]: 10.8 mg/dL
Cl [6]: 103.2 meq/L
DBIL [6]: 0.092 mg/dL
GLC [6]: 204 mg/dL
IP [6]: 9.1 mg/dL
K [6]: 4.1 meq/L
LDH [6]: 144.2 IU/L
Na [6]: 141 meq/L
PL [6]: 154.6 mg/dL
RALB [6]: 3.3 g/dL
TBIL [6]: 0.2 mg/dL
TC [6]: 82.8 mg/dL
TG [6]: 45 mg/dL
TP [6]: 5.3 g/dL
gamma-GTP [6]: 1.4 IU/L
TERMINAL_BW [7]: 207.4 g
APTT [7]: 17.9 s
Bas [7]: 0%
Eos [7]: 0.8%
Fbg [7]: 202.4 mg/dL
Hb [7]: 12.4 g/dL
Ht [7]: 36.1%
Lym [7]: 75.2%
MCH [7]: 21.5 pg
MCHC [7]: 34.3%
MCV [7]: 62.8 fL
Mono [7]: 2.2%
Neu [7]: 21.6%
PT [7]: 13.9 s
Plat [7]: 113.3 x10_4/uL
RBC [7]: 575.8 x10_4/ul
Ret [7]: 7.7%
WBC [7]: 71.8 x10_2/uL
KIDNEY_L [7]: 0.9 g
KIDNEY_R [7]: 1 g
KIDNEY_TOTAL [7]: 1.9 g
LIVER [7]: 8.4 g
A/G [7]: 1.8
ALP [7]: 1031 IU/L
ALT [7]: 31.4 IU/L
AST [7]: 67.6 IU/L
BUN [7]: 10.8 mg/dL
CRE [7]: 0.3 mg/dL
Ca [7]: 10.8 mg/dL
Cl [7]: 104.4 meq/L
DBIL [7]: 0.07 mg/dL
GLC [7]: 186.4 mg/dL
IP [7]: 10.1 mg/dL
K [7]: 3.9 meq/L
LDH [7]: 153.2 IU/L
Na [7]: 142.2 meq/L
PL [7]: 134.2 mg/dL
RALB [7]: 3.5 g/dL
TBIL [7]: 0.1 mg/dL
TC [7]: 74.2 mg/dL
TG [7]: 26.8 mg/dL
TP [7]: 5.5 g/dL
gamma-GTP [7]: 1.2 IU/L
TERMINAL_BW [8]: 222.6 g
APTT [8]: 18.9 s
Bas [8]: 0%
Eos [8]: 0.8%
Fbg [8]: 206.4 mg/dL
Hb [8]: 13.1 g/dL
Ht [8]: 39.3%
Lym [8]: 79.2%
MCH [8]: 21.9 pg
MCHC [8]: 33.4%
MCV [8]: 65.5 fL
Mono [8]: 2.6%
Neu [8]: 16.8%
PT [8]: 13 s
Plat [8]: 123.4 x10_4/uL
RBC [8]: 600.4 x10_4/ul
Ret [8]: 8%
WBC [8]: 97.5 x10_2/uL
KIDNEY_L [8]: 1 g
KIDNEY_R [8]: 1 g
KIDNEY_TOTAL [8]: 2 g
LIVER [8]: 10.5 g
A/G [8]: 1.6
ALP [8]: 1124.8 IU/L
ALT [8]: 39.8 IU/L
AST [8]: 69.8 IU/L
BUN [8]: 13.2 mg/dL
CRE [8]: 0.4 mg/dL
Ca [8]: 10.9 mg/dL
Cl [8]: 104 meq/L
DBIL [8]: 0.1 mg/dL
GLC [8]: 212.4 mg/dL
IP [8]: 8.5 mg/dL
K [8]: 4 meq/L
LDH [8]: 148.6 IU/L
Na [8]: 141 meq/L
PL [8]: 153 mg/dL
RALB [8]: 3.3 g/dL
TBIL [8]: 0.2 mg/dL
TC [8]: 88 mg/dL
TG [8]: 88.4 mg/dL
TP [8]: 5.4 g/dL
gamma-GTP [8]: 1.4 IU/L
